Results: patent publication US8637664B2, “Alkyl 4- [4- (5-oxo-2,3,5, 11a-tetrahydo-5H-pyrrolo [2, 1-c] [1,4] benzodiazepine-8-yloxy)-butyrylamino]-1H-pyrrole-2-carboxylate derivatives and related compounds for the treatment of a proliferative disease” (Spirogen SARL, priority 2005, dated 2014)

What was measured:
calf thymus DNA (CT-DNA) = test: DNA thermal denaturation (melting) studies; assay type: binding; settings: CT-DNA 100 μM DNAp, compound 20 μM, 37 °C; for Induced ΔTm after incubation 0 hours: pH 7.00, 0 hours; for Induced ΔTm after incubation 4 hours: pH 7.00, 4 hours; for Induced ΔTm after incubation 18 hours: pH 7.00, 18 hours; for Induced ΔTm after incubation 72 hours: pH 7.00, 72 hours
Method: The PBD agents were subjected to DNA thermal melting (denaturation) studies (Gregson, S. J., et al., Journal of Medicinal Chemistry, 44(5), 737-748 (2001); Jones, G. B., et al., Anti-Cancer Drug Design, 5(3), 249-264 (1990); McConnaughie, A. W. and; Jenkins, T. C. Journal of Medicinal Chemistry, 38(18), 3488-3501 (1995)) using calf thymus DNA (CT-DNA, type-1, highly polymerized sodium salt; 42% G+C [Sigma]) at a fixed 100 μM (DNAp=50 μM bp) concentration, determined using an extinction coefficient of 6600 (M phosphate)^−1 cm^−1 at 260 nm (Manzini, G., et al., Nucleic Acids Research, 11(24), 8861-8876 (1983)). Solutions were prepared in pH 7.00±0.01 aqueous buffer containing 10 mM NaH2PO4/Na2HPO4 and 1 mM EDTA. Working solutions containing CT-DNA and the test compound (20 μM) were incubated at 37.0±0.1° C. for 0 to 18 hours using an external water bath. Samples were monitored at 260 nm using a Varian-Cary 400 Bio spectrophotometer fitted with a Peltier heating accessory. Heating was applied at a rate of 1° C./min in the 45 to 98° C. temperature range, with optical and temperature data sampling at 200 ms intervals. A separate experiment was carried out using buffer alone, and this baseline was subtracted from each DNA melting curve before data treatment. Optical data were imported into the Origin 5 program (MicroCal Inc., Northampton, Mass.) for analysis. DNA helix→coil transition temperatures (Tm) were determined at the midpoint of the normalized melting profiles using a published analytical procedure (Jones, G. B., et al., Anti-Cancer Drug Design, 5(3), 249-264 (1990)). Results are given in table 1 as the mean±standard deviation from at least three determinations. Ligand-induced alterations in DNA melting behaviour (ΔTm) are given by ΔTm=Tm(DNA+ligand)−Tm(DNA), where the Tm value determined for free CT-DNA is 67.82±0.06° C. (averaged from >90 runs). All PBD compounds were dissolved in HPLC-grade MeOH to give working solutions containing ≦0.6% v/v MeOH; Tm results were corrected for the effects of MeOH co-solvent by using a linear correction term.
The above method was also carried out on the compounds of example 2, with all compounds being incubated for up to 72 hours.

[1] = system: NF-Y binding at ICB2 of Topoisomerase IIα promoter; test: NF-Y gel shift assay (EMSA) at ICB2
[2] = system: 170 bp sequence of the human Topo-IIa promoter; test: DNase I footprinting on Topo-IIa promoter (ICB1, ICB2 sites); assay type: binding; settings: for Concentration at which DNA binding is observed, ICB1: ICB1 site; for Concentration at which DNA binding is observed, ICB2: ICB2 site
Method: In a similar manner to Example 4, the affinity and sequence selectivity of certain compounds of examples 1 and 2 was evaluated by standard DNA footprinting on a 170 bp sequence of the human Topo-IIa promoter, in accordance with the technique described in Martin, C., et al.
Selected results are shown in FIG. 9, wherein the concentrations of the lanes were 0, 1.6, 8, 40, 200, 1000, 5000 and 25000 nM in each case.
The footprinting results allowed the identification of compounds that could potentially disrupt transcription factor binding at the ICB1 and ICB2 sites. […] These compounds are detailed below in table 3, showing the concentrations (μM) at which the PBD-heterocycle conjugates bind at ICB1 and ICB2.

Row | SMILES | Induced ΔTm after incubation 0 hours (calf thymus DNA (CT-DNA)) [°C] | Induced ΔTm after incubation 4 hours (calf thymus DNA (CT-DNA)) [°C] | Induced ΔTm after incubation 18 hours (calf thymus DNA (CT-DNA)) [°C] | Induced ΔTm after incubation 72 hours (calf thymus DNA (CT-DNA)) [°C] | Lowest concentration at which NF-Y binding inhibition was observed [1] [µM] | Concentration at which DNA binding is observed, ICB1 [2] [µM] | Concentration at which DNA binding is observed, ICB2 [2] [µM]
1 | COC(=O)c1cc(NC(=O)c2csc(NC(=O)CCCOc3cc4c(cc3OC)C(=O)N3CCC[C@H]3C=N4)n2)cn1C [Compound 55] | 14.5 | 15.2 | 15.8 | 16.1 | – | – | –
2 | COC(=O)c1cc(NC(=O)c2nc(NC(=O)CCCOc3cc4c(cc3OC)C(=O)N3CCC[C@H]3C=N4)cn2C)cn1C [Compound 57, (11aS) Methyl 4-({4-[4-(7-Methoxy-5-oxo-2,3,5,11a-tetrahydro-5H-pyrrolo[2,1-c][1,4]benzodiazepine-8-yloxy)-butyrylamino]-1-methyl-1H-imidazole-2-carbonyl}-amino)-1-methyl-1H-pyrrole-2-carboxylate] | 2.8 | 3.0 | 3.1 | 3.2 | – | – | –
3 | CCOC(=O)c1nc(NC(=O)c2nc(NC(=O)CCCOc3cc4c(cc3OC)C(=O)N3CCC[C@H]3C=N4)cn2C)cn1C [Compound 59, (11aS) Ethyl 4-({4-[4-(7-Methoxy-5-oxo-2,3,5,11a-tetrahydro-5H-pyrrolo[2,1-c][1,4]benzodiazepine-8-yloxy)-butyrylamino]-1-methyl-1H-imidazole-2-carbonyl}-amino)-1-methyl-1H-imidazole-2-carboxylate] | 10.3 | 10.9 | 11.4 | 11.4 | – | – | –
4 | CCOC(=O)c1csc(NC(=O)c2csc(NC(=O)CCCOc3cc4c(cc3OC)C(=O)N3CCC[C@H]3C=N4)n2)n1 [Compound 61, (11aS) Ethyl 2-({2-[4-(7-Methoxy-5-oxo-2,3,5,11a-tetrahydro-5H-pyrrolo[2,1-c][1,4]benzodiazepine-8-yloxy)-butyrylamino]-thiazole-4-carbonyl}-amino)-thiazole-4-carboxylate] | 7.7 | 8.0 | 8.3 | 8.4 | – | – | –
5 | CCOC(=O)c1csc(NC(=O)c2cc(NC(=O)CCCOc3cc4c(cc3OC)C(=O)N3CCC[C@H]3C=N4)cn2C)n1 [Compound 63, (11aS) Ethyl 2-({4-[4-(7-Methoxy-5-oxo-2,3,5,11a-tetrahydro-5H-pyrrolo[2,1-c][1,4]benzodiazepine-8-yloxy)-butyrylamino]-1-methyl-1H-pyrrole-2-carbonyl}-amino)-thiazole-4-carboxylate] | 9.3 | 9.6 | 10.2 | 10.5 | – | – | –
6 | CCOC(=O)c1nc(NC(=O)c2cc(NC(=O)CCCOc3cc4c(cc3OC)C(=O)N3CCC[C@H]3C=N4)cn2C)cn1C [Compound 65, (11aS) Ethyl 4-({4-[4-(7-Methoxy-5-oxo-2,3,5,11a-tetrahydro-5H-pyrrolo[2,1-c][1,4]benzodiazepine-8-yloxy)-butyrylamino]-1-methyl-1H-pyrrole-2-carbonyl}-amino)-1-methyl-1H-imidazole-2-carboxylate] | 10.0 | 10.7 | 11.2 | 11.3 | – | – | –
7 | COC(=O)c1cc(NC(=O)c2nc(NC(=O)c3cc(NC(=O)CCCOc4cc5c(cc4OC)C(=O)N4CCC[C@H]4C=N5)cn3C)cn2C)cn1C [Compound 71] | 15.5 | 16.0 | 16.9 | 17.2 | 10 | 1 | 5
8 | COC(=O)c1cc(NC(=O)c2csc(NC(=O)c3cc(NC(=O)CCCOc4cc5c(cc4OC)C(=O)N4CCC[C@H]4C=N5)cn3C)n2)cn1C [Compound 73] | 18.5 | 19.9 | 20.7 | 20.9 | 10 | 5 | 1
